Results from US8729089B2 (Gilead Sciences, Inc., priority 2006, dated 2014).

Key:
[1] = CC50 assay (CellTiter-Glo) in Huh-7 HCV replicon cells; assay type: cell-based, human; settings: human, 3 days incubation, CellTiter-Glo readout
In short: (§1)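 Huh-7 cells carrying an HCV replicon (6000/well) exposed to 3-fold serial compound dilutions for 3 days at 37 °C, final DMSO 0.5% where used. EC50 read as replicon luciferase luminescence after cell lysis; CC50 from CellTiter-Glo luminescence after 10 min at room temperature.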

[2] = system: HCV replicon in human hepatoma Huh-7 cell line; test: Anti-HCV replicon assay (EC50, luciferase); assay type: cell-based; settings: Hepatitis C virus, Huh-7, 72 h
In short: as §1

SMILES: NS(=O)(=O)c1ccc(CNc2nc(NCC(F)(F)F)c3nc(-c4ccc(F)c(Cl)c4)ccc3n2)cc1 [Example 233, 4-{[6-(3-Chloro-4-fluoro-phenyl)-4-(2,2,2-trifluoro-ethylamino)-pyrido[3,2-d]pyrimidin-2-ylamino]-methyl}-benzenesulfonamide]
- CC50 at 3 days [1]: 5 to 25 µM
- EC50 [2]: < 0.1 µM

SMILES: Cc1ccc(Nc2nc(NC(C)C)c3nc(-c4ccc(F)cc4)ccc3n2)nn1 [Example 52, 6-(4-Fluoro-phenyl)-N4-isopropyl-N2-(6-methyl-pyridazin-3-yl)-pyrido[3,2-d]pyrimidine-2,4-diamine]
- CC50 at 3 days [1]: 5 to 25 µM
- EC50 [2]: 0.25 to 2 µM

SMILES: CCOP(=O)(CCNc1nc(NCC(F)(F)F)c2nc(-c3ccc(F)cc3)ccc2n1)OCC [Example 256, {2-[6-(4-Fluoro-phenyl)-4-(2,2,2-trifluoro-ethylamino)-pyrido[3,2-d]pyrimidin-2-ylamino]-ethyl}-phosphonic acid diethyl ester]
- CC50 at 3 days [1]: 5 to 25 µM
- EC50 [2]: < 0.1 µM

SMILES: CCOc1nc(NCc2ccc(F)cc2)nc2ccc(-c3cccc(NS(=O)(=O)C4CC4)c3)nc12 [Example 82, Cyclopropanesulfonic acid {3-[4-ethoxy-2-(4-fluoro-benzylamino)-pyrido[3,2-d]pyrimidin-6-yl]-phenyl}-amide]
- CC50 at 3 days [1]: < 5 µM
- EC50 [2]: < 0.1 µM

SMILES: CCOc1nc(NCc2ccc(F)cc2)nc2ccc(-c3ccc(NC(=O)NCCN4CCOCC4)cc3)nc12 [Example 71, 1-{4-[4-Ethoxy-2-(4-fluoro-benzylamino)-pyrido[3,2-d]pyrimidin-6-yl]-phenyl}-3-(2-morpholin-4-yl-ethyl)-urea]
- CC50 at 3 days [1]: < 5 µM
- EC50 [2]: < 0.1 µM

SMILES: CCOc1nc(NCc2ccc(S(N)(=O)=O)cc2)nc2ccc(-c3ccc(F)c(Cl)c3)nc12 [Example 127, 4-{[4-Ethoxy-6-(3-chloro-4-fluorophenyl)-pyrido[3,2-d]pyrimidin-2-ylamino]-methyl}-benzenesulfonamide]
- CC50 at 3 days [1]: < 5 µM
- EC50 [2]: < 0.1 µM

SMILES: CCOc1nc(NCc2ccc(S(N)(=O)=O)cc2)nc2ccc(-c3ccc(NC(=O)N4CCCC4)cc3)nc12 [Example 129, 4-{[4-Ethoxy-6-(4-(pyrrolidine-1-carboxamido)-phenyl)-pyrido[3,2-d]pyrimidin-2-ylamino]-methyl}-benzenesulfonamide]
- CC50 at 3 days [1]: > 25 µM
- EC50 [2]: < 0.1 µM

SMILES: CCOc1nc(NCc2ccc(F)cc2)nc2ccc(-c3ccc4c(c3)CC(=O)N4)nc12 [Example 78, 5-[4-Ethoxy-2-(4-fluoro-benzylamino)-pyrido[3,2-d]pyrimidin-6-yl]-1,3-dihydro-indol-2-one]
- CC50 at 3 days [1]: 5 to 25 µM
- EC50 [2]: < 0.1 µM

SMILES: Nc1ncc(-c2ccc3nc(NCc4ccc(S(N)(=O)=O)cc4)nc(NCC(F)(F)F)c3n2)s1 [Example 188, 4-{[6-(2-Amino-thiazol-5-yl)-4-(2,2,2-trifluoro-ethylamino)-pyrido[3,2-d]pyrimidin-2-ylamino]-methyl}-benzenesulfonamide]
- CC50 at 3 days [1]: 5 to 25 µM
- EC50 [2]: < 0.1 µM

SMILES: NS(=O)(=O)c1ccc(CNc2nc(NCC(F)(F)F)c3nc(-c4ccc(NC(=O)OCCN5CCCC5)cc4)ccc3n2)cc1 [Example 223, {4-[2-(4-Sulfamoyl-benzylamino)-4-(2,2,2-trifluoro-ethylamino)-pyrido[3,2-d]pyrimidin-6-yl]-phenyl}-carbamic acid 2-pyrrolidin-1-yl-ethyl ester]
- CC50 at 3 days [1]: 5 to 25 µM
- EC50 [2]: < 0.1 µM

SMILES: NS(=O)(=O)CCNc1nc(NCC(F)(F)F)c2nc(-c3ccc(F)cc3)ccc2n1 [Example 259, 2-[6-(4-Fluoro-phenyl)-4-(2,2,2-trifluoro-ethylamino)-pyrido[3,2-d]pyrimidin-2-ylamino]-ethanesulfonic acid amide]
- CC50 at 3 days [1]: 5 to 25 µM
- EC50 [2]: < 0.1 µM

SMILES: CCOc1nc(NCc2ccc(CS(N)(=O)=O)cc2)nc2ccc(-c3ccc(F)cc3)nc12 [Example 270]
- CC50 at 3 days [1]: 5 to 25 µM
- EC50 [2]: < 0.1 µM

SMILES: CS(=O)(=O)CCNc1nc(NCc2ccc(S(N)(=O)=O)cc2)nc2ccc(-c3ccc(F)c(Cl)c3)nc12 [Example 150, 4-{[4-(2-Methanesulfonylethyl)-amino-6-(3-chloro-4-fluorophenyl)-pyrido[3,2-d]pyrimidin-2-ylamino]-methyl}-benzenesulfonamide]
- CC50 at 3 days [1]: < 5 µM
- EC50 [2]: < 0.1 µM

SMILES: CCOc1nc(NCc2ccc(S(N)(=O)=O)cc2)nc2ccc(-c3cccc(NS(=O)(=O)N(C)C)c3)nc12 [Example 132]
- CC50 at 3 days [1]: < 5 µM
- EC50 [2]: < 0.1 µM

SMILES: Nc1ncc(-c2ccc3nc(NCc4ccc(S(N)(=O)=O)cc4)nc(NC4CC4)c3n2)s1 [Example 183, 4-{[6-(2-Amino-thiazol-5-yl)-4-cyclopropylamino-pyrido[3,2-d]pyrimidin-2-ylamino]-methyl}-benzenesulfonamide]
- CC50 at 3 days [1]: 5 to 25 µM
- EC50 [2]: < 0.1 µM

SMILES: Cc1noc(C)c1-c1ccc2nc(NCc3ccc(S(N)(=O)=O)cc3)nc(NCC(F)(F)F)c2n1 [Example 165, 4-{[6-(3,5-Dimethyl-isoxazol-4-yl)-4-(2,2,2-trifluoro-ethylamino)-pyrido[3,2-d]pyrimidin-2-ylamino]-methyl}-benzenesulfonamide]
- CC50 at 3 days [1]: < 5 µM
- EC50 [2]: < 0.1 µM

SMILES: CC(C)N1CCC(NS(=O)(=O)c2cc(-c3ccc4nc(NCc5ccc(S(N)(=O)=O)cc5)nc(NCC(F)(F)F)c4n3)ccc2Cl)CC1 [Example 193, 2-Chloro-N-(1-isopropyl-piperidin-4-yl)-5-[2-(4-sulfamoyl-benzylamino)-4-(2,2,2-trifluoro-ethylamino)-pyrido[3,2-d]pyrimidin-6-yl]-benzenesulfonamide]
- CC50 at 3 days [1]: < 5 µM
- EC50 [2]: < 0.1 µM

SMILES: NS(=O)(=O)c1ccc(CNc2nc(NCC(F)(F)F)c3nc(-c4ccc(F)c(S(=O)(=O)N5CCNCC5)c4)ccc3n2)cc1 [Example 217, 4-{[6-[4-Fluoro-3-(piperazine-1-sulfonyl)-phenyl]-4-(2,2,2-trifluoro-ethylamino)-pyrido[3,2-d]pyrimidin-2-ylamino]-methyl}-benzenesulfonamide]
- CC50 at 3 days [1]: < 5 µM
- EC50 [2]: < 0.1 µM

SMILES: CCOc1nc(NCc2ccc(S(N)(=O)=O)cc2)nc2ccc(-c3ccc(N4CCC(O)C4=O)cc3)nc12 (stereo not shown) [Example 122, 4-{[4-Ethoxy-6-(4-(3-hydroxy-2-oxopyrrolidin-1-yl)-phenyl)-pyrido[3,2-d]pyrimidin-2-ylamino]-methyl}-benzenesulfonamide]
- CC50 at 3 days [1]: > 25 µM
- EC50 [2]: < 0.1 µM

SMILES: CCOc1nc(NCc2ccc(F)cc2Cl)nc2ccc(-c3ccc(F)cc3)nc12 [Example 43, (2-Chloro-4-fluoro-benzyl)-[4-ethoxy-6-(4-fluoro-phenyl)-pyrido[3,2-d]pyrimidin-2-yl]-amine]
- CC50 at 3 days [1]: > 25 µM
- EC50 [2]: < 0.1 µM

SMILES: NS(=O)(=O)c1ccc(CNc2nc(Nc3ccc(-n4cncn4)cc3)c3nc(-c4ccc(F)cc4)ccc3n2)cc1 [Example 228, 4-{[6-(4-Fluoro-phenyl)-4-(4-[1,2,4]triazol-1-yl-phenylamino)-pyrido[3,2-d]pyrimidin-2-ylamino]-methyl}-benzenesulfonamide]
- CC50 at 3 days [1]: < 5 µM
- EC50 [2]: < 0.1 µM

SMILES: CCOc1nc(NCc2ccc(S(N)(=O)=O)cc2)nc2ccc(-c3ccc(NC(=O)C(C)(C)N)cc3)nc12 [Example 135, 4-{[4-Ethoxy-6-(4-((2-amino-2-propyl)-carboxamido)-phenyl)-pyrido[3,2-d]pyrimidin-2-ylamino]-methyl}-benzenesulfonamide]
- CC50 at 3 days [1]: < 5 µM
- EC50 [2]: < 0.1 µM

SMILES: O=C1C(O)CCN1c1ccc(-c2ccc3nc(NCc4ccc(F)cc4)nc(NCC(F)(F)F)c3n2)cc1 (stereo not shown) [Example 275, 1-{4-[2-(4-Fluoro-benzylamino)-4-(2,2,2-trifluoro-ethylamino)-pyrido[3,2-d]pyrimidin-6-yl]-phenyl}-3-hydroxy-pyrrolidin-2-one]
- CC50 at 3 days [1]: < 5 µM
- EC50 [2]: < 0.1 µM

SMILES: CCCc1nc(NCc2ccc(S(N)(=O)=O)cc2)nc2ccc(-c3ccc(F)cc3)nc12 [Example 112, 4-{[6-(4-Fluoro-phenyl)-4-propyl-pyrido[3,2-d]pyrimidin-2-ylamino]-methyl}-benzenesulfonamide]
- CC50 at 3 days [1]: < 5 µM
- EC50 [2]: < 0.1 µM

SMILES: N#CC1(Nc2nc(NCc3ccc(S(N)(=O)=O)cc3)nc3ccc(-c4ccc(F)cc4)nc23)CC1 [Example 303, 4-{[4-(1-Cyano-cyclopropylamino)-6-(4-fluoro-phenyl)-pyrido[3,2-d]pyrimidin-2-ylamino]-methyl}-benzenesulfonamide]
- CC50 at 3 days [1]: 5 to 25 µM
- EC50 [2]: < 0.1 µM

SMILES: CS(=O)(=O)Nc1ccc(CNc2nc(NCC(F)(F)F)c3nc(-c4ccc(F)cc4)ccc3n2)cc1 [Example 241, N-(4-{[6-(4-Fluoro-phenyl)-4-(2,2,2-trifluoro-ethylamino)-pyrido[3,2-d]pyrimidin-2-ylamino]-methyl}-phenyl)-methanesulfonamide]
- CC50 at 3 days [1]: 5 to 25 µM
- EC50 [2]: < 0.1 µM

SMILES: NS(=O)(=O)c1ccc(CNc2nc(NCC(F)(F)F)c3nc(-c4ccc(Cl)c(S(N)(=O)=O)c4)ccc3n2)cc1 [Example 202, 2-Chloro-5-[2-(4-sulfamoyl-benzylamino)-4-(2,2,2-trifluoro-ethylamino)-pyrido[3,2-d]pyrimidin-6-yl]-benzenesulfonamide]
- CC50 at 3 days [1]: < 5 µM
- EC50 [2]: < 0.1 µM

SMILES: CCOc1nc(NCc2ccc(S(N)(=O)=O)cc2)nc2ccc(-c3cnc(N)s3)nc12 [Example 126, 4-{[4-Ethoxy-6-(2-aminothiazole-5-yl)-pyrido[3,2-d]pyrimidin-2-ylamino]-methyl}-benzenesulfonamide]
- CC50 at 3 days [1]: < 5 µM
- EC50 [2]: < 0.1 µM

SMILES: NS(=O)(=O)c1ccc(CNc2nc(NCC(F)(F)F)c3nc(-c4ccc(Cl)cc4)ccc3n2)cc1 [Example 192, 4-{[6-(4-Chloro-phenyl)-4-(2,2,2-trifluoro-ethylamino)-pyrido[3,2-d]pyrimidin-2-ylamino]-methyl}-benzenesulfonamide]
- CC50 at 3 days [1]: 5 to 25 µM
- EC50 [2]: < 0.1 µM
